From PubChem BioAssay AID1322 (NMMLSC, 2008)
Activity calls are given as the source filed them. The rule behind the calls is not given here.

Molecular target: Bcl-2-like protein 1 (Homo sapiens) (UniProt Q07817)
Test: Bim-Bcl-XL interaction inhibitors, potency, dose response, biochemical, multiplexed, bead flow cytometry, human Bcl-XL (AID 1322); for inhibition: test concentration not given here
Details: Bead-based flow cytometry, Bim peptide-Bcl-XL binding, MCF

Chain of Bcl-2-like protein 1 (Homo sapiens) (Q07817 whole entry, looked up): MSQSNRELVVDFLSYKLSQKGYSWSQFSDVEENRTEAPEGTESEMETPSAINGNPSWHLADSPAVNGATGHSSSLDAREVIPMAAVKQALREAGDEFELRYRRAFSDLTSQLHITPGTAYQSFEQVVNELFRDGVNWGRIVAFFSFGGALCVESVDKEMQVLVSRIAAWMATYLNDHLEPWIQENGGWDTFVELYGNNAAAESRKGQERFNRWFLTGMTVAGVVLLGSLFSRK

Compound | outcome | EC50
Cn1cccc1CC(=O)N/N=C\c1ccccc1 | inactive | 
CN(C)C(Cc1ccccc1)C(=O)c1cccs1 (stereo not given) | inactive | 
CCN1/C(=C\c2ccc3cc(C)ccc3[n+]2CC)Sc2cc(C)c(C)cc21 | inactive | 
Oc1ccc(NCc2ccccc2OCc2ccccc2)cc1 | inactive | 
C=CS(=O)(=O)c1sc(Cl)c(N2CCOCC2)c1[N+](=O)[O-] | inactive | 
COc1cc(/C=N/Nc2nn3cnnc3c3ccccc23)ccc1O |  | inactive
O=C(O)c1ccccc1NSc1ccccc1[N+](=O)[O-] | inactive | 
COc1cccc(/C=N/Nc2nn3cnnc3c3ccccc23)c1O |  | inactive
C=CCN1C(=O)/C(=C/c2ccsc2)SC1=S | inactive | 
Cc1ccccc1-n1c(SCc2cccc(F)c2)nc2[nH]ncc2c1=O | inactive | 
Cc1ccc(C(=O)NNC(=O)c2ccc3ncccc3c2)cc1 | inactive | 
O=C(C1=NN[C@@H]2C(=O)N(c3ccccc3C(F)(F)F)C(=O)[C@H]12)c1ccc2ccccc2n1 | inactive | 
CCN(CC)C(=O)COC(=O)c1cc(-c2ccco2)nc2ccccc12 | inactive | 
Cc1cc(N/C(=N/S(=O)(=O)c2cc(F)ccc2F)c2ccccc2)n(-c2ccccc2)n1 | inactive | 
CCOc1ccc(-n2cc(-c3ccc(OC)c(OC)c3)[nH]c2=S)cc1 | inactive | 
O=C(c1ccccc1)c1ccc2nc(-c3ccco3)c(-c3ccco3)nc2c1 | inactive | 

Same assay, conditions: Bead-based flow cytometry, Bim peptide-Bcl-XL binding, MCF

Compound | inhibition
Brc1ccc2ncnc(Nc3ccc(N4CCOCC4)cc3)c2c1 | inactive
Cn1c(OCc2cccnc2)nc2c1c(=O)n(Cc1ccccc1)c(=O)n2C | inactive
COc1ccc(OC)c(NC(=O)COC(=O)c2cc3c(s2)CCC3)c1 | inactive
CCOC(=O)CSC1=NC(=O)/C(=C/c2ccc(OC)cc2)S1 | inactive
Cc1cc(C(=O)NCCCN(C)C)c2ccccc2n1 | inactive
CC1=CC(=O)c2c(O)ccc(O)c2C1=O | inactive
COc1ccc(NC(=O)/C(Cl)=C(/Cl)S(=O)Cc2ccccc2)cn1 (stereo not given) | inactive
CCOC(=O)c1c(NC(=O)c2ccccc2N(C)S(=O)(=O)c2ccccc2)sc2c1CCCC2 | inactive
O=C(NC1=NCCS1)NC12CC3CC(CC(C3)C1)C2 | inactive
CCn1c(SCC(=O)Nc2ccc(C)cc2)nnc1-c1ccc(O)cc1 | inactive
COc1ccc(C2=Nn3c(nnc3-c3ccccn3)SC2)cc1OC | inactive
Cc1cc(N2CCN(C)CC2)nc2ccc(NC(=S)N3CCN(c4cccc(Cl)c4)CC3)cc12 | inactive
COc1cc(N2CCOCC2)ccc1C=C1C(=O)NC(=O)NC1=O | inactive
COc1ccc(OC)c(-n2c(-c3ccc(C)cc3)n[nH]c2=S)c1 | inactive
Cc1ccc(/C=C/C(=O)c2ccccc(=O)c2O)c(C)c1 | inactive
COC(=O)CCC(=O)Nc1sc(C)c(C)c1C(N)=O | inactive
OC(CNC1CCCCC1)COCCOc1ccc(Br)cc1 (stereo not given) | inactive
N#CC(C#N)=C1C=CC=CN1/C(=C\c1ccco1)C(=O)c1ccccc1 | inactive
N#Cc1cc(-c2ccccc2)nn1-c1ccccc1 | inactive
Cc1ccc2nc3c(cc(C(N)=S)c(=N)n3CCCOC(C)C)c(=O)n2c1 | inactive
COc1cc(C=Nc2cccc(C)c2)c(O)c([N+](=O)[O-])c1 | inactive
Cc1cc(C)c2c(N)c3cccc(C)c3nc2n1 | inactive
COCc1cc(CN2CCCC(CNC(=O)c3ccc(F)cc3)C2)ccc1OC (stereo not given) | inactive

Compound | inhibition
CCOC(=O)c1ccc(NC(=O)CSCCC(=O)O)cc1 | inactive
COc1ccc(N2C(=O)C(Cl)=C(Nc3ccccc3O)C2=O)cc1 | inactive
O=C1C(Cl)=C(Nc2ccccc2O)C(=O)N1c1ccccc1 | inactive
O=C(C1=C(Nc2ccccc2)c2ccccc2S(=O)(=O)N1)c1ccccc1 | inactive
Cc1cc(C)c(S(=O)(=O)/N=C2/C=C(SCC(=O)O)C(=O)c3ccccc32)cc1C | inactive
CCCCCCc1cc2cc(C(=O)Nc3ccccc3)c(=O)oc2cc1O | inactive
Cc1ccc(-c2cc(-c3ccccc3Cl)c(C#N)c(N)n2)o1 | inactive
COC(=O)c1sc(NC(=O)c2ccc(Cn3cc(Cl)cn3)o2)c(C#N)c1C | inactive
COc1ccc(OC)c2sc(NC(=O)c3ccc(Br)s3)nc12 | inactive
COc1ccc2nc(C)cc(SCC(=O)N/N=C/c3ccc(O)c(O)c3)c2c1 | inactive
COc1ccc(N2C(=O)C(Cl)=C(Oc3cccc(OC)c3)C2=O)cc1 | inactive
O=C(C[n+]1ccc(-c2nnc3n2CCC3)cc1)c1ccc(Cl)c(Cl)c1 | inactive
Cc1cc(C)c(C)c(S(=O)(=O)N2CCN(CC(=O)NC(=O)NCc3ccccc3)CC2)c1C | inactive
CCOC(=O)c1[nH]cnc1C(=O)NC(C)C | inactive
NNC(=O)COc1ccccc1F | inactive
COc1ccc(/C=C2\SC(=O)NC2=S)cc1OC | inactive
CCN1CCN(c2cc(C)c3cc(NC(=S)N4CCN(c5ccccc5)CC4)ccc3n2)CC1 | inactive
Cc1cc(C)c2nc3nc(C)c(C)cc3c(N)c2c1 | inactive
COc1cc(NC(=O)c2ccc3c(c2)OCO3)ccc1NC(=O)c1ccco1 | inactive
O=C(NCc1ccccc1)c1ccc2nc(-c3ccco3)c(-c3ccco3)nc2c1 | inactive
COc1ccc(-n2cc(-c3ccc(OC)c(OC)c3)[nH]c2=S)cc1 | inactive
COc1cccc(/C=N/NC(=O)c2cc3cc([N+](=O)[O-])ccc3s2)c1O | inactive
O=C(Cn1cncc1-c1ccc([N+](=O)[O-])cc1)Nc1ccccc1F | inactive

Compound | inhibition
O=C(O)CCN1C(=O)/C(=C\c2ccc(-c3nc4ccccc4s3)o2)SC1=S | inactive
CCC(=O)NC(c1ccc(C)cc1)c1cc([N+](=O)[O-])c2cccnc2c1O (stereo not given) | inactive
CN(C)c1ccc(Nc2nc(-c3cccnc3)cs2)cc1 | inactive
Cc1ccc2c(c1)c(C)c(C)n2CC(O)Cn1nc(C)c(Br)c1C (stereo not given) | inactive
S=C(NCCc1ccccc1)NCCc1ccccc1 | inactive
COc1ccc(COC(=O)NNC(=O)c2ccccc2Cl)cc1 | inactive
CN(C)[C@@H]1C(=O)C(C(=O)NCN2CCCC2)=C(O)[C@@]2(O)C(=O)C3=C(O)c4c(O)cccc4[C@@](C)(O)C3CC12 (stereo not given in full) | inactive
O=C(COc1ccccc1Br)NCc1ccccn1 | inactive
CC1=CC(=O)c2ccccc2C1=O | inactive
COc1ccc(CC(=O)Nc2ccc(C(=O)Nc3nccs3)cc2)cc1OC | inactive
Cc1nnc(Sc2cc(NCCCO)c([N+](=O)[O-])c3nonc23)s1 | inactive
CCOc1ccc2nc(SCC(=O)N3c4ccccc4Sc4ccccc43)c(C#N)cc2c1 | inactive
COc1ccc(N2CCN(CCCNC(=O)CCCn3c(=O)[nH]c4ccsc4c3=O)CC2)cc1 | inactive
Cc1cccc(N=C2NC(=O)/C(=C/C=C/c3ccco3)S2)c1C | inactive
COc1ccc(-c2noc(COc3ccc4c(c3)OCO4)n2)cc1OC | inactive
COc1ccc(OCCNC(=O)c2ccccc2OCC(=O)N2CCCCC2)cc1 | inactive
O=C1NC(=O)C2(Cc3c(nc4ccccn4c3=O)N3CCCCCC32)C(=O)N1Cc1ccccc1 (stereo not given) | inactive
Cc1cc(-c2csc(N)n2)c(C)n1CCc1ccccc1 | inactive
CCOC(=O)c1nc(Nc2ccc(Nc3ccccc3)cc2)c2ccccc2n1 | inactive
COC(=O)Cc1ccc(NC(=S)N2CCN(c3cccc(O)c3)CC2)cc1 | inactive
Cc1nonc1NC(=O)CSc1nnc(-c2ccoc2C)n1C | inactive
O=C(Nc1ccc2nc(-c3ccco3)c(-c3ccco3)nc2c1)N1CCCCCC1 | inactive
NC(=O)c1c(N)sc2c1CCCCC2 | inactive

Compound | inhibition
CC(=O)Nc1ccc(-n2cc(-c3ccccc3)[nH]c2=S)cc1 | inactive
CCN(CC)c1ccc(-c2nn3c(-c4n[nH]c5c4CCC5)nnc3s2)cc1 | inactive
C/C(=N\NC(=O)Cn1nc(C)c([N+](=O)[O-])c1C)c1ccc(O)cc1 | inactive
O=C(O)C1=C[C@H](C2CC2)C[C@H](OCCCCO)O1 | inactive
Cc1ccc(-c2cc(C(=O)Nc3ccccn3)c3ccccc3n2)o1 | inactive
O=C(Nc1nnc(C2CC2)s1)C1Cc2ccccc2CN1S(=O)(=O)c1ccccc1F (stereo not given) | inactive
Cc1c(N=C2C=CC(=O)c3ccccc32)c(=O)n(-c2ccccc2)n1C | inactive
O=C(NCc1ccco1)C1CC2CCC1C2 (stereo not given) | inactive
CCOC(=O)C1CCCN(c2ncnc3c2cnn3-c2cccc(C)c2)C1 (stereo not given) | inactive
O=C(NC1=C(NC2CCS(=O)(=O)C2)C(=O)c2ccccc2C1=O)c1ccccc1 (stereo not given) | inactive
O=C1NCCN1C(=O)N(c1ccccc1)c1ccccc1 | inactive
C1=CC2c3ccccc3NC(c3ccncc3)C2C1 (stereo not given) | inactive
COC(=O)c1c(NC(=O)COc2ncnc3ccccc23)sc(C)c1C | inactive
Cc1ccccc1-c1nc(-c2ccc(NC(=O)c3ccc4c(c3)OCO4)cc2)no1 | inactive
CN1CCN(c2ccccc2N)CC1 | inactive
CCOC(=O)/C(=C\c1cccc(O)c1)c1nc2sc(C)c(C)c2c(=O)[nH]1 | inactive
COc1cc2c(cc1OC)C(c1ccccc1F)OC(=O)C2 (stereo not given) | inactive
CCN1/C(=C/c2ccc3cc(C)ccc3[n+]2CC)Sc2cc(C)c(C)cc21 | inactive
Fc1ccc(/C=C2\CCCC3=C2NC(=S)NC3c2ccc(F)cc2)cc1 (stereo not given) | inactive
CNc1ccc(Br)cc(C(=O)/C=C/c2cccc(OC)c2OC)c1=O | inactive
